Assay results from ChEMBL document CHEMBL1121778, “5,7-Dihydroxy-2-aminotetralin derivatives: synthesis and assessment of dopaminergic and adrenergic actions” (1981).
Activity calls are given as the source filed them. No cut-off for these calls is given here.

Experiments:
Felis catus [1] = assay: %change in arterial pressure of the cat on intravenous administration 0.115 umol/kg of the compound.; type: functional, Artery
Canis familiaris [2] = assay: Compound was tested for increase in renal blood flow in dog anesthetized with sodium pentobarbitol (30 mg/kg, iv) and systemic blood pressure and heart rate were recorded; Inactive at 2 umol/kg; type: functional, organism-based; conditions: Canis lupus familiaris
Felis catus [3] = assay: %change in arterial pressure of the cat on intravenous administration of 0.038 umol/kg the compound.; type: functional, Artery
Felis catus [4] = assay: %change in arterial pressure of the cat on intravenous administration of 0.38 umol/kg of the compound.; type: functional, Artery
Felis catus [5] = assay: Compound was tested for the inhibition of cat cardioaccelerator nerve stimulation; Inactive at 2 umol/kg iv; type: functional, organism-based
Felis catus [6] = assay: change in heart rate(beats/min) of the cat on intravenous administration of 0.115 umol/kg of the compound.; type: functional
Felis catus [7] = assay: change in heart rate(beats/min) of the cat on intravenous administration 0.038 umol/kg of the compound.; type: functional
Felis catus [8] = assay: change in heart rate(beats/min) of the cat on intravenous administration of 0.38 umol/kg of the compound.; type: functional
Canis familiaris [9] = assay: Compound was tested for emesis(active expulsion of fluid or solid matter)in dog at 2 umol/kg sc; No emesis produced; type: functional, organism-based; conditions: Canis lupus familiaris
Felis catus [10] = assay: Change in heart rate(beats/min) of the cat on intravenous administration of 1.09 umol/kg of the compound.; type: functional
Felis catus [11] = assay: Change in heart rate(beats/min) of the cat on intravenous administration of 0.36 umol/kg the compound.; type: functional
Felis catus [12] = assay: Percentage change in arterial pressure of the cat on intravenous administration of 1.09 umol/kg of uM/kg of the compound.; type: functional, Artery
Felis catus [13] = assay: Percentage change in arterial pressure of the cat on intravenous administration of 0.36 umol/kg of the compound.; type: functional, Artery
Felis catus [14] = organism: Felis catus; assay: Compound was tested for the inhibition of cat cardioaccelerator nerve stimulation, activity expressed as ED50.; type: functional
Felis catus [15] = organism: Felis catus; assay: Potency relative to apomorphine.; type: functional
Felis catus [16] = assay: Percentage change in arterial pressure of the cat on intravenous administration of 0.009 umol/kg of the compound.; type: functional, Artery
Felis catus [17] = assay: Change in heart rate(beats/min) of the cat on intravenous administration of 0.003 umol/kg of the compound.; type: functional
Felis catus [18] = assay: Percentage change in arterial pressure of the cat on intravenous administration of 0.003 umol/kg of the compound.; type: functional, Artery
Felis catus [19] = assay: Change in heart rate(beats/min) of the cat on intravenous administration of 0.033 umol/kg of the compound.; type: functional
Felis catus [20] = assay: Percentage change in arterial pressure of the cat on intravenous administration of 0.033 umol/kg of the compound.; type: functional, Artery
Felis catus [21] = assay: Change in heart rate(beats/min) of the cat on intravenous administration of 0.009 umol/kg of the compound.; type: functional
Canis familiaris [22] = organism: Canis familiaris; assay: Compound was tested for emesis(active expulsion of fluid or solid matter)in dog; type: functional; conditions: Canis lupus familiaris
Felis catus [23] = assay: Change in heart rate(beats/min) of the cat on intravenous administration of 0.10 umol/kg of the compound.; type: functional
Felis catus [24] = assay: Change in heart rate(beats/min) of the cat on intravenous administration of 0.01 umol/kg of the compound.; type: functional
Felis catus [25] = organism: Felis catus; assay: Compound was tested for the inhibition of cat cardioaccelerator nerve stimulation; type: functional
Felis catus [26] = assay: Percentage change in arterial pressure of the cat on intravenous administration of 0.10 umol/kg of the compound.; type: functional, Artery
Felis catus [27] = assay: Percentage change in arterial pressure of the cat on intravenous administration of 0.01 umol/kg of the compound.; type: functional, Artery
Felis catus [28] = assay: Change in heart rate(beats/min) of the cat on intravenous administration of 0.03 umol/kg of the compound.; type: functional
Felis catus [29] = assay: Percentage change in arterial pressure of the cat on intravenous administration of 0.03 umol/kg of the compound.; type: functional, Artery
Felis catus [30] = assay: Percentage change in arterial pressure of the cat on intravenous administration of 0.1 uM/kg of the compound.; type: functional, Artery
Felis catus [31] = assay: Change in heart rate(beats/min) of the cat on intravenous administration of 0.1 uM/kg of the compound.; type: functional
Felis catus [32] = assay: Change in heart rate(beats/min) of the cat on intravenous administration of 0.016 umol/kg of the compound.; type: functional
Felis catus [33] = organism: Felis catus; assay: Compound was tested for the inhibition of cat cardioaccelerator nerve stimulation,; type: functional
Felis catus [34] = assay: Percentage change in arterial pressure of the cat on intravenous administration of 0.016 umol/kg of the compound.; type: functional, Artery
Felis catus [35] = assay: Percentage change in arterial pressure of the cat on intravenous administration of 0.032 umol/kg of the compound.; type: functional, Artery
Felis catus [36] = assay: Change in heart rate(beats/min) of the cat on intravenous administration at 0.008 umol/kg; type: functional
Canis familiaris [37] = organism: Canis familiaris; assay: Compound was tested for emesis(active expulsion of fluid or solid matter)in dog, activity expressed as ED50.; type: functional; conditions: Canis lupus familiaris
Felis catus [38] = assay: Percentage change in arterial pressure of the cat on intravenous administration at 0.008 umol/kg; type: functional, Artery
Felis catus [39] = assay: Compound was tested for the inhibition of cat cardioaccelerator nerve stimulation; […]; type: functional, organism-based
Felis catus [40] = assay: Change in heart rate(beats/min) of the cat on intravenous administration of 0.33 umol/kg of the compound.; type: functional
Felis catus [41] = assay: Change in heart rate(beats/min) of the cat on intravenous administration of 0.99 umol/kg of the compound.; type: functional
Felis catus [42] = assay: Percentage change in arterial pressure of the cat on intravenous administration of 0.99 umol/kg of the compound.; type: functional, Artery
Felis catus [43] = assay: Percentage change in arterial pressure of the cat on intravenous administration of 0.33 umol/kg of the compound.; type: functional, Artery
Felis catus [44] = assay: Change in heart rate(beats/min) of the cat on intravenous administration of 0.11 umol/kg of the compound.; type: functional
Felis catus [45] = assay: Percentage change in arterial pressure of the cat on intravenous administration of 0.11 umol/kg of the compound.; type: functional, Artery

## Br.NC1CCc2c(O)cc(O)cc2C1 (centres undefined)
Felis catus [1]
  Change: 21.6%
Canis familiaris [2]
  Increase: inactive
Felis catus [3]
  Change: 19.7%
Felis catus [4]
  Change: 30.5%
Felis catus [5]
  ED50: inactive
Felis catus [6]
  Heart rate: 3.6 beats min-1
Felis catus [7]
  Heart rate: 0 beats min-1
Felis catus [8]
  Heart rate: 17.6 beats min-1
Canis familiaris [9]
  ED50: No emesis produced

## Br.CNC1CCc2c(O)cc(O)cc2C1 (centres undefined)
Felis catus [10]
  Heart rate: 44 beats min-1
Canis familiaris [2]
  Increase: inactive
Felis catus [11]
  Heart rate: 26.7 beats min-1
Felis catus [12]
  Change: 84.2%
Felis catus [5]
  ED50: inactive
Felis catus [13]
  Change: 49.7%
Canis familiaris [9]
  ED50: No emesis produced

## Br.CCCN(CCC)C1CCc2c(O)cc(O)cc2C1 (centres undefined)
Felis catus [14]
  ED50: 0.035 µmol/kg
Felis catus [15]
  Relative potency: 0.95
Canis familiaris [2]
  Increase: inactive
Felis catus [16]
  Change: -17.2%
Felis catus [17]
  Heart rate: -3.6 beats min-1
Felis catus [18]
  Change: -12.2%
Felis catus [19]
  Heart rate: -5.6 beats min-1
Felis catus [20]
  Change: -27.2%
Felis catus [21]
  Heart rate: -4.8 beats min-1

## Br.CCNC1CCc2c(O)cc(O)cc2C1 (centres undefined)
Canis familiaris [22]
  ED50: 0.36 µmol/kg
Felis catus [15]
  Relative potency: 1.04
Felis catus [23]
  Heart rate: -6 beats min-1
Canis familiaris [2]
  Increase: inactive
Felis catus [24]
  Heart rate: -6.6 beats min-1
Felis catus [19]
  Heart rate: -10.6 beats min-1
Felis catus [25]
  ED50: 0.04 µmol/kg
Felis catus [26]
  Change: -19.6%
Felis catus [20]
  Change: -18.5%
Felis catus [27]
  Change: -6.3%

## Br.CN(C)C1CCc2c(O)cc(O)cc2C1 (centres undefined)
Felis catus [15]
  Relative potency: 1.45
Felis catus [24]
  Heart rate: 0 beats min-1
Felis catus [28]
  Heart rate: 0.6 beats min-1
Felis catus [29]
  Change: 8%
Felis catus [25]
  ED50: 0.021 µmol/kg
Felis catus [30]
  Change: 23.2%
Felis catus [31]
  Heart rate: 12.8 beats min-1
Felis catus [27]
  Change: 4.1%

## CN1CCc2cccc3c2[C@H]1Cc1ccc(O)c(O)c1-3 [APOMORPHINE]
Felis catus [15]
  Relative potency: 1
Felis catus [32]
  Heart rate: -6.5 beats min-1
Felis catus [33]
  ED50: 0.022 µmol/kg
Felis catus [34]
  Change: -11.5%
Felis catus [35]
  Change: -18.2%
Felis catus [36]
  Heart rate: -4.3 beats min-1
Canis familiaris [37]
  ED50: 0.142 µmol/kg
Felis catus [38]
  Change: -9.9%

## Br.CCN(CC)C1CCc2c(O)cc(O)cc2C1 (centres undefined)
Felis catus [15]
  Relative potency: 1.4
Canis familiaris [2]
  Increase: inactive
Felis catus [16]
  Change: -23%
Felis catus [17]
  Heart rate: -2.1 beats min-1
Felis catus [18]
  Change: -8.7%
Felis catus [19]
  Heart rate: -25 beats min-1
Felis catus [25]
  ED50: 0.024 µmol/kg
Felis catus [20]
  Change: -25%
Felis catus [21]
  Heart rate: -23 beats min-1

## Br.CC(C)NC1CCc2c(O)cc(O)cc2C1 (centres undefined)
Felis catus [39]
  ED50: inactive
Canis familiaris [2]
  Increase: inactive
Felis catus [40]
  Heart rate: 7.7 beats min-1
Felis catus [41]
  Heart rate: 14.4 beats min-1
Felis catus [42]
  Change: 25.2%
Felis catus [43]
  Change: 19.7%
Felis catus [44]
  Heart rate: 3.2 beats min-1
Canis familiaris [9]
  ED50: inactive
Felis catus [45]
  Change: 16.9%
